From patent US20180214563A1, “IMMUNOSTIMULATORY NANOCARRIER” (University of Pittsburgh - Of the Commonwealth System of …, priority 2015, published 2018)

Test system: 4T1.2 cells
Assay: In vitro cytotoxicity, MTT assay, 4T1.2
Assay type: cell-based, mouse
Conditions: 72 h
Experimental: 4T1.2 , PC3, Panc02, and B16 cells at 2000 cells/well were seeded in 96-well plates, respectively. […] After 3 days of incubation, 20 μL of 3-(4,5-dimethylthiazol-2-yl)-2,5-diphenyltetrazoliumbromide (MTT) in DPBS (5 mg/mL) was added to each well and cells were further incubated for 2 h. Medium was removed and MTT formazan crystals were solubilized by 100 μL of DMSO per well. Absorbance of each well was measured with a microplate reader at wavelength of 550 nm. Untreated wells were used as controls. Cell viability was calculated as [(ODtreated-ODblank)/(ODcontrol-ODblank)×100%].

CC(=O)O[C@H]1C(=O)[C@@]2(C)[C@H]([C@H](OC(=O)c3ccccc3)[C@]3(O)C[C@H](OC(=O)[C@H](O)[C@@H](NC(=O)c4ccccc4)c4ccccc4)C(C)=C1C3(C)C)[C@]1(OC(C)=O)CO[C@@H]1C[C@@H]2O [PTX, paclitaxel]
cytotoxicity (tumor cell growth inhibition): inhibited the tumor cell growth in a concentration-dependent manner
